Measurements from paper PMC12525867, “Aromaticity Tuning in Biaryl Monophosphines and Their Derivatives” (Molecules, 2025).
≈ marks a conversion by molar mass, not a printed value.

Key:
Assay in all cases: Antibacterial screening, broth microdilution (MIC/MBC)
A. baumannii ATCC 19606 = format: cell-based, Acinetobacter baumannii; settings: Acinetobacter baumannii, ATCC19606; A. baumannii ATCC 19606, MHB, 24 h, 35 °C; read-out: MIC
Description: (§1) The antimicrobial activities of a series of compounds 1–5 were tested through the utilization of seven reference species, encompassing both Gram-positive (Staphylococcus aureus ATCC 29213, Staphylococcus epidermidis ATCC 12228, Micrococcus luteus ATCC 10240) and Gram-negative (Escherichia coli ATCC 25922, Klebsiella pneumoniae ATCC 13883, Proteus mirabilis ATCC 12453, Acinetobacter baumannii ATCC 19606) bacteria as model microorganisms. For this purpose, microbial suspensions were prepared in sterile saline (0.85% NaCl) with an optical density of 0.5 McFarland standard, yielding a concentration of 150 × 10^6 CFU/mL (CFU, colony-forming units). All of the stock solutions of the tested compounds were dissolved in DMSO. Amoxicillin (Glentham Life Sciences Ltd., Corsham, UK) was used as a positive control.
(§2) The MIC values of the tested compounds were determined by serial twofold dilutions of 1–5 in Mueller Hinton Broth (MHB, Biomaxima, Lublin, Poland). The range of final 1–5 concentrations used was from 0.49 up to 1000 μg/mL, and for amoxicillin from 0.12 up to 250 μg/mL in the 96-well microtiter plates (Medlab, Raszyn, Poland), starting with 98 μL MHB and 2 μL bacterial inoculum added to each well. Positive controls consisted of 100 μL MHB in each well with the tested compounds at the same concentration range. The negative controls consisted of 100 μL of MHB only. Each set of tests and controls was established with three replicates. The microtiter plates were then subjected to an incubation period of 24 h at a temperature of 35 ± 2 °C. After incubation, the optical density of the microbial growth was measured at a wavelength of 600 nm using a microplate reader, the Biotek Elx800 (BioTek Instruments, Inc., Winooski, VT, USA). The MIC value was defined as the lowest concentration of the tested compound at which there was no visible growth of the tested microorganisms. The determination of the MIC values was achieved by employing the broth microdilution method, in accordance with the recommendations of the European Committee on Antimicrobial Susceptibility Testing (EUCAST). […] Then, the MHA plates were incubated overnight at 35 ± 2 °C. […] The MIC and MBC values were reported in μg/mL, according to the EUCAST reference.

[1] = tested on: S. epidermidis ATCC 12228; format: cell-based, Staphylococcus epidermidis; settings: for MIC / MBC: Staphylococcus epidermidis, ATCC12228; for MIC: S. epidermidis ATCC 12228, MHB, 24 h, 35 °C, read-out: MIC; for MBC: read-out: MBC
Description: as §1, §2

S. aureus ATCC 29213 = format: cell-based, Staphylococcus aureus; settings: Staphylococcus aureus, ATCC29213; for MIC: S. aureus ATCC 29213, MHB, 24 h, 35 °C, read-out: MIC; for MBC: S. aureus ATCC 29213, read-out: MBC
Description: as §1, §2

P. mirabilis ATCC 12453 = format: cell-based, Proteus mirabilis; settings: Proteus mirabilis, ATCC12453; P. mirabilis ATCC 12453, MHB, 24 h, 35 °C; read-out: MIC
Description: as §1, §2

SMILES | MIC (A. baumannii ATCC 19606) [µg/mL] | MIC [1] [µg/mL] | MBC ([1]; S. epidermidis ATCC 12228) [µg/mL] | MIC (S. aureus ATCC 29213) [µg/mL] | MBC (S. aureus ATCC 29213) [µg/mL] | MIC (P. mirabilis ATCC 12453) [µg/mL] | type of activity (bactericidal or bacteriostatic) ([1]; S. epidermidis ATCC 12228)
COc1ccccc1-c1c(P(=O)(C2CCCCC2)C2CCCCC2)c(OC)c2ccccc2c1OC [Compound 2, Dicyclohexyl[1,4-dimethoxy-3-(2-methoxyphenyl)naphthalen-2-yl]phosphane oxide] | 500 (≈ 987 µM) | 3.91 to 7.89 (≈ 7.72 to 15.6 µM) | > 1000 | 7.82 to 15.6 (≈ 15.4 to 30.9 µM) | > 1000 | > 1000 | 
COc1cc(OC)c(-c2c(P(=O)(C3CCCCC3)C3CCCCC3)c(O)c3ccccc3c2OC)c(OC)c1 [Compound 3, 2-(Dicyclohexylphosphoryl)-4-methoxy-3-(2,4,6-trimethoxyphenyl)naphthalen-1-ol] | > 1000 | 31.2 (≈ 56.5 µM) | > 1000 | 62.5 to 125 (≈ 113 to 226 µM) | > 1000 | > 1000 | 
COc1cc(OC)c(-c2c(P(=O)(C3CCCCC3)C3CCCCC3)c(OC)c3ccccc3c2OC)c(OC)c1 [Compound 1, Dicyclohexyl[1,4-dimethoxy-3-(2,4,6-trimethoxyphenyl)naphthalen-2-yl]phosphane oxide] | 1000 (≈ 1760 µM) | 15.6 to 31.2 (≈ 27.6 to 55.1 µM) | 250 (≈ 441 µM) | 15.6 to 31.2 (≈ 27.6 to 55.1 µM) | > 1000 | > 1000 | bactericidal
